In patent US8921307B2, “Synthetic linear apelin mimetics for the treatment of heart failure” (priority 2012, dated 2014) one finds EC50 and half-life data, which are given here for 15 compounds.

For one data set, the target named is T1, hAPJ (Homo sapiens, UniProt P35414).
T1 sequence (P35414 1-380): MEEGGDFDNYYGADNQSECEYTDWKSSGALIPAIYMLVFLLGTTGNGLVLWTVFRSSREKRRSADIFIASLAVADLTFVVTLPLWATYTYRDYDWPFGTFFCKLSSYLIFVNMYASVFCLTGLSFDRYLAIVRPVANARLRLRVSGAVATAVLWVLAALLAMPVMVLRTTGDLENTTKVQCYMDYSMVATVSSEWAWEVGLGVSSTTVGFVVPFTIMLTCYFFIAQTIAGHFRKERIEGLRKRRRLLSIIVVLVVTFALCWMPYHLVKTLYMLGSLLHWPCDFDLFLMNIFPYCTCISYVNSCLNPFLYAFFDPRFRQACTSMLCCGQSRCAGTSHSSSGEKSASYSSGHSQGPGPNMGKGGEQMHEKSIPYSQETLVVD
The data set can be described thus: hAPJ Calcium Flux Assay. It counts as cell-based. The conditions noted are these: Chem-5 APJ stable cells, FLIPR calcium flux stimulation; read-out: hAPJ Ca^2+ Flux EC50. Here is the method:
Chem-5 APJ stable cells (Millipore # HTS068C) were plated in 384-well format with 10,000 cells/well in 25 ul growth media, then grown 24 hours in a 37° C. tissue culture incubator. One hour before the assay, 25 ul/well FLIPR Calcium 4 dye (Molecular Devices R8142) with 2.5 mM probenecid was added, and cells were incubated one hour in a 37° C. tissue culture incubator. Peptides were solubilized in HBSS, HEPES & 0.1% BSA buffer, and serially-diluted 10-fold, from 50 uM to […], in triplicate. FLIPR Tetra was used to add peptide to the cells with dye (1:5, for final peptide concentrations ranging from 10 uM to […]). FLIPR dye inside the cells emitted fluorescence after binding to calcium, while fluorescence from outside the cells was masked. Fluorescence was measured using 470-495 excitation and 515-575 emission wavelengths on the FLIPR Tetra. Readings were done for 3 minutes total, beginning 10 seconds before the peptide addition. Maximum-minimum values were calculated and plotted for each peptide concentration, and GraphPad prism software was used to calculate EC50 values at the curve inflection points, for calcium flux stimulation by peptides.
On the technique in general: Calcium flux is commonly read through the fluorescence of an indicator in the cells.

Data set [1] in a line: Surrogate Activity-Based Plasma Stability Assay. It counts as in vitro ADME. The conditions noted are these: rat, Surrogate activity-based Plasma stability t½. Here is the method:
Stability half-life was then calculated by the formula, t½=0.693÷k Surrogate Activity-Based Plasma Stability Assay: […]
2) Calculate slope of value above and […]

Where a SMILES comes first, the peptide text is derived from it. [ ]: non-standard residue; d: D form. Phe(3,4-Cl2) = N[C@@H](Cc1ccc(Cl)c(Cl)c1)C(=O)O; 2Nal = N[C@@H](Cc1ccc2ccccc2c1)C(=O)O; Cha = N[C@@H](CC1CCCCC1)C(=O)O; pGlu = O=C1CC[C@@H](C(=O)O)N1; dNle = CCCC[C@@H](N)C(=O)O; Aib = CC(C)(N)C(=O)O

By EC50 is commonly meant the concentration giving half of the maximal effect. The term half-life denotes the time needed for the level to fall by half in the phase considered. The low end stands for rapid decline, the high end for slow decline.

As to `CCCC[C@@H](NC(=O)[C@@H]1CCCN1C(=O)CNC(=O)[C@H](CCCCN)NC(=O)[C@H](Cc1c[nH]cn1)NC(=O)[C@@H](CC(=O)O)NC(=O)[C@H](CC(C)C)NC(=O)[C@H](CCCNC(=N)N)NC(=O)[C@@H]1CCCN1C(=O)[C@H](CCCNC(=N)N)NC(=O)[C@@H]1CCC(=O)N1)C(=O)N[C@H](C)C(=O)N[C@H](Cc1ccccc1)C(=O)O` [Example 8, pE-R-P-R-L-d-H-K-G-P-nle-a-f-OH] ([pGlu]RPRL[dD]HKGP[dNle][dA][dF]-OH), the 50% effective concentration (EC50) on hAPJ is 7.7 nM. Also, the half-life in data set [1] was > 1000 min.
Take `CCCC[C@@H](NC(=O)[C@@H]1CCCN1C(=O)CNC(=O)[C@H](CCCCN)NC(=O)[C@H](Cc1c[nH]cn1)NC(=O)[C@@H](C)NC(=O)[C@H](CC(C)C)NC(=O)[C@H](CCCNC(=N)N)NC(=O)[C@@H]1C[C@@H](c2ccccc2)CN1C(=O)[C@H](CCCNC(=N)N)NC(=O)[C@@H]1CCC(=O)N1)C(=O)N[C@H](C)C(=O)N[C@H](Cc1ccccc1)C(=O)O` [Example 9, pE-R-(trans-4-PhP)-R-L-a-H-K-G-P-nle-a-f-OH]: the 50% effective concentration (EC50) at hAPJ worked out at 9.9 nM. For the same compound, the half-life in data set [1] is > 1000 min.
Regarding `CCCC[C@@H](NC(=O)[C@@H]1CCCN1C(=O)CNC(=O)[C@H](CCCCN)NC(=O)[C@H](Cc1c[nH]cn1)NC(=O)[C@@H](CC(C)C)NC(=O)[C@H](CC(C)C)NC(=O)[C@H](CCCNC(=N)N)NC(=O)[C@@H]1CCCN1C(=O)[C@H](CCCNC(=N)N)NC(=O)[C@@H]1CCC(=O)N1)C(=O)N[C@H](C)C(=O)N[C@H](Cc1ccccc1)C(=O)O` [Example 10, pE-R-P-R-L-(D-Leu)-H-K-G-P-nle-a-f-OH] ([pGlu]RPRL[dL]HKGP[dNle][dA][dF]-OH), on hAPJ, the EC50 is 155 nM. Moreover, in data set [1], the half-life is > 1000 min.
Consider `CCCC[C@@H](NC(=O)[C@@H]1CCCN1C(=O)CNC(=O)[C@H](CCCCN)NC(=O)[C@H](Cc1c[nH]cn1)NC(=O)[C@@H](CCCCN)NC(=O)[C@H](CC(C)C)NC(=O)[C@H](CCCNC(=N)N)NC(=O)[C@@H]1CCCN1C(=O)[C@H](CCCNC(=N)N)NC(=O)[C@@H]1CCC(=O)N1)C(=O)N[C@H](C)C(=O)N[C@H](Cc1ccccc1)C(=O)O` [Example 11, pE-R-P-R-L-k-H-K-G-P-nle-a-f-OH] ([pGlu]RPRL[dK]HKGP[dNle][dA][dF]-OH), for which the EC50 at hAPJ was 1060 nM. The half-life in data set [1] is > 1000 min.
With `CCCC[C@@H](NC(=O)[C@@H]1CCCN1C(=O)CNC(=O)[C@H](CCCCN)NC(=O)[C@H](Cc1c[nH]cn1)NC(=O)[C@@H](CO)NC(=O)[C@H](CC(C)C)NC(=O)[C@H](CCCNC(=N)N)NC(=O)[C@@H]1CCCN1C(=O)[C@H](CCCNC(=N)N)NC(=O)[C@@H]1CCC(=O)N1)C(=O)N[C@H](C)C(=O)N[C@H](Cc1ccccc1)C(=O)O` [Example 12, pE-R-P-R-L-s-H-K-G-P-nle-a-f-OH] ([pGlu]RPRL[dS]HKGP[dNle][dA][dF]-OH), the EC50 on hAPJ turned out to be 0.9 nM. The half-life in data set [1] is > 1000 min.
Taken in the same sequence, the figures for `CCCC[C@@H](NC(=O)[C@@H]1CCCN1C(=O)CNC(=O)[C@H](CCCCN)NC(=O)[C@H](Cc1c[nH]cn1)NC(=O)[C@@H](C)NC(=O)[C@H](CC(C)C)NC(=O)[C@H](CCCNC(=N)N)NC(=O)[C@@H]1CCCN1C(=O)[C@H](CCCNC(=N)N)NC(=O)[C@@H]1CCC(=O)N1)C(=O)N1CCC[C@@H]1C(=O)N[C@H](Cc1ccccc1)C(=O)O` [Example 13, pE-R-P-R-L-a-H-K-G-P-nle-p-f-OH] ([pGlu]RPRL[dA]HKGP[dNle][dP][dF]-OH) were 1.1 nM and > 1000 min.
Consider `CCCC[C@@H](NC(=O)[C@@H]1CCCN1C(=O)CNC(=O)[C@H](CCCCN)NC(=O)C(C)(C)NC(=O)[C@@H](C)NC(=O)[C@H](CC(C)C)NC(=O)[C@H](CCCNC(=N)N)NC(=O)[C@@H]1CCCN1C(=O)[C@H](CCCNC(=N)N)NC(=O)[C@@H]1CCC(=O)N1)C(=O)N[C@H](C)C(=O)N[C@H](Cc1ccccc1)C(=O)O` [Example 15, pE-R-P-R-L-a-Aib-K-G-P-nle-a-f-OH] ([pGlu]RPRL[dA][Aib]KGP[dNle][dA][dF]-OH), for which the EC50 at hAPJ was 2.1 nM. Also, the half-life in data set [1] was > 1000 min.
Taken in the same sequence, the figures for `CCCC[C@@H](NC(=O)[C@@H]1CCCN1C(=O)CNC(=O)[C@H](CCCCN)NC(=O)[C@H](Cc1c[nH]cn1)NC(=O)[C@@H](C)NC(=O)[C@H](CC(C)C)NC(=O)[C@H](CCCNC(=N)N)NC(=O)[C@@H]1CCCN1C(=O)[C@H](CCCNC(=N)N)NC(=O)[C@@H]1CCC(=O)N1)C(=O)N[C@@H](Cc1ccccc1)C(=O)O` [Example 18, pE-R-P-R-L-a-H-K-G-P-nle-F-OH] ([pGlu]RPRL[dA]HKGP[dNle]F-OH) were 66.5 nM and 122 min.
For the compound `CCCC[C@@H](NC(=O)[C@@H]1CCCN1C(=O)CNC(=O)[C@H](CCCCN)NC(=O)[C@H](Cc1c[nH]cn1)NC(=O)[C@@H](C)NC(=O)[C@H](CC(C)C)NC(=O)[C@H](CCCNC(=N)N)NC(=O)[C@@H]1CCCN1C(=O)[C@H](CCCNC(=N)N)NC(=O)[C@@H]1CCC(=O)N1)C(=O)N[C@H](CCC(=O)O)C(=O)N[C@H](Cc1ccccc1)C(=O)O` [Example 19, pE-R-P-R-L-a-H-K-G-P-nle-e-f-OH] ([pGlu]RPRL[dA]HKGP[dNle][dE][dF]-OH), on hAPJ, the half-maximal effective concentration (EC50) amounted to 169 nM. The half-life in data set [1] was > 1000 min.
Taken in the same sequence, the figures for `CCCC[C@@H](NC(=O)[C@@H]1CCCN1C(=O)CNC(=O)[C@H](CCCCN)NC(=O)[C@H](Cc1c[nH]cn1)NC(=O)[C@@H](C)NC(=O)[C@H](CC(C)C)NC(=O)[C@H](CCCNC(=N)N)NC(=O)[C@@H]1CCCN1C(=O)[C@H](CCCNC(=N)N)NC(=O)[C@@H]1CCC(=O)N1)C(=O)N[C@H](CCCNC(=N)N)C(=O)N[C@H](Cc1ccccc1)C(=O)O` [Example 20, pE-R-P-R-L-a-H-K-G-P-nle-r-f-OH] ([pGlu]RPRL[dA]HKGP[dNle][dR][dF]-OH) were 922 nM and > 1000 min.
`CCCC[C@@H](NC(=O)[C@@H]1CCCN1C(=O)CNC(=O)[C@H](CCCCN)NC(=O)[C@H](Cc1c[nH]cn1)NC(=O)[C@@H](C)NC(=O)[C@H](CC(C)C)NC(=O)[C@H](CCCNC(=N)N)NC(=O)[C@@H]1CCCN1C(=O)[C@H](CCCNC(=N)N)NC(=O)[C@@H]1CCC(=O)N1)C(=O)N[C@H](C)C(=O)N[C@H](Cc1ccc(O)cc1)C(=O)O` [Example 21, pE-R-P-R-L-a-H-K-G-P-nle-a-y-OH] ([pGlu]RPRL[dA]HKGP[dNle][dA][dY]-OH): the EC50 on hAPJ amounted to 0.9 nM. Moreover, in data set [1], the half-life is > 1000 min.
Taken in the same sequence, the figures for `CCCC[C@@H](NC(=O)[C@@H]1CCCN1C(=O)CNC(=O)[C@H](CCCCN)NC(=O)[C@H](Cc1c[nH]cn1)NC(=O)[C@@H](C)NC(=O)[C@H](CC(C)C)NC(=O)[C@H](CCCNC(=N)N)NC(=O)[C@@H]1CCCN1C(=O)[C@H](CCCNC(=N)N)NC(=O)[C@@H]1CCC(=O)N1)C(=O)N[C@H](C)C(=O)N[C@H](CC(=O)O)C(=O)O` [Example 22, pE-R-P-R-L-a-H-K-G-P-nle-a-d-OH] ([pGlu]RPRL[dA]HKGP[dNle][dA][dD]-OH) were 86.8 nM and > 1000 min.
Taken in the same sequence, the figures for `CCCC[C@@H](NC(=O)[C@@H]1CCCN1C(=O)CNC(=O)[C@H](CCCCN)NC(=O)[C@H](Cc1c[nH]cn1)NC(=O)[C@@H](C)NC(=O)[C@H](CC1CCCCC1)NC(=O)[C@H](CCCNC(=N)N)NC(=O)[C@@H]1CCCN1C(=O)[C@H](CCCNC(=N)N)NC(=O)[C@@H]1CCC(=O)N1)C(=O)N[C@H](C)C(=O)N[C@H](Cc1ccccc1)C(=O)O` [Example 23, pE-R-P-R-Cha-a-H-K-G-P-nle-a-f-OH] ([pGlu]RPR[Cha][dA]HKGP[dNle][dA][dF]-OH) were 2.8 nM and 125 min.
Taken in the same sequence, the figures for `CCCC[C@@H](NC(=O)[C@@H]1CCCN1C(=O)CNC(=O)[C@H](CCCCN)NC(=O)[C@H](Cc1c[nH]cn1)NC(=O)[C@@H](C)NC(=O)[C@H](Cc1ccc(Cl)c(Cl)c1)NC(=O)[C@H](CCCNC(=N)N)NC(=O)[C@@H]1CCCN1C(=O)[C@H](CCCNC(=N)N)NC(=O)[C@@H]1CCC(=O)N1)C(=O)N[C@H](C)C(=O)N[C@H](Cc1ccccc1)C(=O)O` [Example 24, pE-R-P-R-(3,4-Cl2-F)-a-H-K-G-P-nle-a-f-OH] ([pGlu]RPR[Phe(3,4-Cl2)][dA]HKGP[dNle][dA][dF]-OH) were 13.8 nM and 57.5 min.
On to `CCCC[C@@H](NC(=O)[C@@H]1CCCN1C(=O)CNC(=O)[C@H](CCCCN)NC(=O)[C@H](Cc1c[nH]cn1)NC(=O)[C@@H](C)NC(=O)[C@H](Cc1ccc2ccccc2c1)NC(=O)[C@H](CCCNC(=N)N)NC(=O)[C@@H]1CCCN1C(=O)[C@H](CCCNC(=N)N)NC(=O)[C@@H]1CCC(=O)N1)C(=O)N[C@H](C)C(=O)N[C@H](Cc1ccccc1)C(=O)O` [Example 25, pE-R-P-R-(2-Nal)-a-H-K-G-P-nle-a-f-OH] ([pGlu]RPR[2Nal][dA]HKGP[dNle][dA][dF]-OH), for which the 50% effective concentration (EC50) at hAPJ is 69.2 nM. Further, the half-life in data set [1] turned out to be 242 min.
